# Results as given in patent publication US9265771B2, “Method for treating Lyme disease” (Zoetis Services LLC, priority 2012, dated 2016).
# Where “and” joins values, the source holds several entries; their conditions need not be identical. Equal entries are not always repeated.
# Key:
# Format in all cases: in vivo, beagle dogs
# B. burgdorferi [1] = test: Study B: microscopic examination of joints and skin at necropsy; details: for Number of Joints with Changes as Described for Lyme disease: N = 8
# Method: (§1) Thirty-two (18 male and 14 female) beagle dogs were sero-negative for Borrelia burgdorferi, not vaccinated with any Borrelia spp vaccines, and acclimated at the study facility for seven days. The study was conducted under National Research Council guidelines (1996). […] Field-caught Ixodes from the northeast USA were placed on the dogs without containment chambers for 10 days; after ticks fed to repletion, dogs were treated with two applications of an approved topical acaricide with a 30-day interval between applications.
# (§2) Forty days post-challenge, and prior to antibiotic treatments, blood was collected from each dog as were two skin biopsy punch samples near tick attachment sites. Blood was collected approximately monthly post-treatment. Skin biopsies were taken near the tick attachment site on Days 48/49, 118, 146, 180, and 315. Serum antibodies to Borrelia were assayed using the IDEXX SNAP-4Dx and QC6 ELISA. In cooperation with Cornell University, serum samples were analyzed using fluorescent-bead-based multiplex assays detecting antibodies against B. burgdorferi outer surface proteins OspA, OspC, and OspF. Data were expressed as median fluorescent intensities (MFI), and shown to be specific and sensitive to provide interpretative guidelines regarding infection. The skin biopsies were collected for a polymerase chain reaction (PCR; FlaB) assay and cultured for spirochete detection. At the end of the study, blood and skin biopsies were collected and synovial tissue from the joints were harvested at necropsy.
# (§3) On Day 75 and Day 89 Convenia was administered to the eight dogs in T04 (8 mg/kg bodyweight; subcutaneous injection). The other treated groups received their respective regimens daily and orally for 30 days from Days 75 to 104. […] Dogs in T01 served as infected, untreated, controls. Inter-treatment comparisons to evaluate antibiotic efficacy included clinical signs, serology, culture results and pathology.
# At necropsy ten joints were harvested per each dog, formalin-fixed, stained and examined microscopically. Joints included the carpus, elbow, shoulder, stifle and tarsus on both the right and left limbs. Further, a section of skin near tick attachment sites was evaluated from each dog. There were two dogs in the Convenia group (25%) with tissues showing changes as described for Lyme disease, compared to seven controls (87.5%) and three (37.5%) to four (50.0%) dogs in the other antibiotic-treated groups (Table 7). […] The Convenia group had the lowest incidence of joint changes with six affected of 80.
# [2] = tested on: B. burgdorferi outer surface protein OspF; test: Study B: fluorescent-bead-based multiplex assay, antibodies against OspF; details: for Multiplex Assay OspF: No. Dogs > Positive Threshold (# dogs > 1500): 8 dogs/group
# Method: as §1
# as §2, with “Data were expressed as median fluorescent intensities (MFI), and shown to be specific and sensitive to provide interpretative guidelines regarding infection.” left out
# On Day 75 and Day 89 Convenia was administered to the eight dogs in T04 (8 mg/kg bodyweight; subcutaneous injection). The other treated groups received their respective regimens daily and orally for 30 days from Days 75 to 104. […] Dogs in T01 served as infected, untreated, controls.
# B. burgdorferi [3] = test: Study B: QC6 ELISA in tick-infected dogs; details: 8 dogs/group
# Source text: (§4) Three outer surface proteins (Osp) on B. burgdorferi are important for diagnosis and prevention, and are expressed by the organism in response to its local environment. […] OspF is another surface protein that is generally observed in late-stage disease. The C in […] refers to a 25-amino acid, C6 peptide in the sixth invariable region of an outer membrane lipoprotein (VIsE). Antibody against C6 is highly accurate as a serologic diagnosis of Lyme disease independent of a subject's (e.g., canine) vaccination status. Further, the generation of C6 antibodies implies an active infection with viable spirochetes. Serological methods for detecting B. burgdorfer/Lyme disease were conducted using the IDEXX qualitative SNAP-4Dx ELISA and the Quantitative C6 (Quant C6 or QC6) diagnostic kits, which are enzyme linked immunosorbent assays against the previously described 25-amino-acid C6 peptide. QC6 ELISA data, units/mL, are useful for guidance in initiating and evaluating response to therapy (See Levy S A, O'Connor T P, Hanscom J L, Shields P, et al. Quantitative measurement of a C6 antibody following antibiotic treatment of Borrelia burgdorferi antibody-positive, nonclinical dogs. Clin Vacc Immunol 2008; 15(1):115-119 and Littman M P, Goldstein R E, Labato M A, et al. ACVIM Small Animal Concensus Statement on Lyme Disease in Dogs: Diagnosis, Treatment and Prevention. J Vet Intern Med 2006; 20: 422-434).
# as §1, §2, §3
# [4] = tested on: B. burgdorferi outer surface protein OspC; test: Study B: fluorescent-bead-based multiplex assay, antibodies against OspC; details: Day 281
# Method: as §1
# as §2, with “At the end of the study, blood and skin biopsies were collected and synovial tissue from the joints were harvested at necropsy.” left out
# B. burgdorferi [5] = test: Study B: SNAP-4Dx ELISA in tick-infected dogs; details: for SNAP-4Dx Positives, Number of Dogs: N = 8/group
# Source text: as §4, §1, §2, §3
# [6] = joints, skin, 8 dogs/group, necropsy
smiles,measurement,setting,value
CC1(C)S[C@@H]2[C@H](NC(=O)[C@H](N)c3ccc(O)cc3)C(=O)N2[C@H]1C(=O)O [amoxicillin],"Number of Joints with Changes as Described for Lyme disease, Cumulative",B. burgdorferi [1]; 80 total/group,12
same,Number of Joints with Changes as Described for Lyme disease,B. burgdorferi [1]; Carpus L,2
same,Number of Joints with Changes as Described for Lyme disease,B. burgdorferi [1]; Carpus R,2
same,Number of Joints with Changes as Described for Lyme disease,B. burgdorferi [1]; Elbow L,1
same,Number of Joints with Changes as Described for Lyme disease,B. burgdorferi [1]; Elbow R,1
same,Number of Joints with Changes as Described for Lyme disease,B. burgdorferi [1]; Shoulder L,0
same,Number of Joints with Changes as Described for Lyme disease,B. burgdorferi [1]; Shoulder R,1
same,Number of Joints with Changes as Described for Lyme disease,B. burgdorferi [1]; Stifle L,1
same,Number of Joints with Changes as Described for Lyme disease,B. burgdorferi [1]; Stifle R,2
same,Number of Joints with Changes as Described for Lyme disease,B. burgdorferi [1]; Tarsus L,1
same,Number of Joints with Changes as Described for Lyme disease,B. burgdorferi [1]; Tarsus R,1
same,"No Tissue Changes, # Dogs",B. burgdorferi [1]; [6],4
same,"No Tissue Changes, %",B. burgdorferi [1]; [6],50%
same,"Tissue Changes Described for Lyme Disease, # Dogs",B. burgdorferi [1]; [6],4
same,"Tissue Changes Described for Lyme Disease, %",B. burgdorferi [1]; [6],50%
same,Multiplex Assay OspF: MFI Mean,[2]; Day 48 (pre-treatment),1083.75 MFI
same,Multiplex Assay OspF: No. Dogs > Positive Threshold (# dogs > 1500),[2]; Day 48 (pre-treatment),2
same,Multiplex Assay OspF: No. Dogs > Positive Threshold (# dogs > 1500),[2]; Day 111,three and 3
same,Multiplex Assay OspF: MFI Mean,[2]; Day 145,458.13 MFI
same,Multiplex Assay OspF: No. Dogs > Positive Threshold (# dogs > 1500),[2]; Day 145,0
same,Multiplex Assay OspF: MFI Mean,[2]; Day 179,327.88 MFI
same,Multiplex Assay OspF: No. Dogs > Positive Threshold (# dogs > 1500),[2]; Day 179,0
same,Multiplex Assay OspF: MFI Mean,[2]; Day 221,269.63 MFI
same,Multiplex Assay OspF: No. Dogs > Positive Threshold (# dogs > 1500),[2]; Day 221,0
same,Multiplex Assay OspF: MFI Mean,[2]; Day 251,288.63 MFI
same,Multiplex Assay OspF: No. Dogs > Positive Threshold (# dogs > 1500),[2]; Day 251,0
same,Multiplex Assay OspF: MFI Mean,[2]; Day 281,288.88 MFI
same,Multiplex Assay OspF: No. Dogs > Positive Threshold (# dogs > 1500),[2]; Day 281,0
same,Multiplex Assay OspF: MFI Mean,[2]; Day 314,278.25 MFI
same,Multiplex Assay OspF: No. Dogs > Positive Threshold (# dogs > 1500),[2]; Day 314,0
same,Multiplex Assay OspF: MFI Mean,[2]; Day −15 (pre-infection),133.38 MFI
same,Multiplex Assay OspF: No. Dogs > Positive Threshold (# dogs > 1500),[2]; Day −15 (pre-infection),0
same,Antibody-OspF status of dogs,[2]; after Day 111,all dogs negative thereafter
same,"Dogs Sero-converted to B. burgdorferi per QC6 ELISA (≧30 U/mL), (%)",B. burgdorferi [3]; Day 48 (pre-treatment),100.0%
same,"Number of Dogs Sero-converted to B. burgdorferi per QC6 ELISA (≧30 U/mL), No.",B. burgdorferi [3]; Day 48 (pre-treatment),8
same,"Dogs Sero-converted to B. burgdorferi per QC6 ELISA (≧30 U/mL), (%)",B. burgdorferi [3]; Day 111,75.0%
same,"Number of Dogs Sero-converted to B. burgdorferi per QC6 ELISA (≧30 U/mL), No.",B. burgdorferi [3]; Day 111,6
same,"Dogs Sero-converted to B. burgdorferi per QC6 ELISA (≧30 U/mL), (%)",B. burgdorferi [3]; Day 145,0.0%
same,"Number of Dogs Sero-converted to B. burgdorferi per QC6 ELISA (≧30 U/mL), No.",B. burgdorferi [3]; Day 145,0
same,"Dogs Sero-converted to B. burgdorferi per QC6 ELISA (≧30 U/mL), (%)",B. burgdorferi [3]; Day 179,0.0%
same,"Number of Dogs Sero-converted to B. burgdorferi per QC6 ELISA (≧30 U/mL), No.",B. burgdorferi [3]; Day 179,0
same,"Dogs Sero-converted to B. burgdorferi per QC6 ELISA (≧30 U/mL), (%)",B. burgdorferi [3]; Day 221,0.0%
same,"Number of Dogs Sero-converted to B. burgdorferi per QC6 ELISA (≧30 U/mL), No.",B. burgdorferi [3]; Day 221,0
same,"Dogs Sero-converted to B. burgdorferi per QC6 ELISA (≧30 U/mL), (%)",B. burgdorferi [3]; Day 251,0.0%
same,"Number of Dogs Sero-converted to B. burgdorferi per QC6 ELISA (≧30 U/mL), No.",B. burgdorferi [3]; Day 251,0
same,"Dogs Sero-converted to B. burgdorferi per QC6 ELISA (≧30 U/mL), (%)",B. burgdorferi [3]; Day 281,0.0%
same,"Number of Dogs Sero-converted to B. burgdorferi per QC6 ELISA (≧30 U/mL), No.",B. burgdorferi [3]; Day 281,0
same,"Dogs Sero-converted to B. burgdorferi per QC6 ELISA (≧30 U/mL), (%)",B. burgdorferi [3]; Day 314,0.0%
same,"Number of Dogs Sero-converted to B. burgdorferi per QC6 ELISA (≧30 U/mL), No.",B. burgdorferi [3]; Day 314,0
same,Number of dogs above infected threshold (antibody-OspC),[4],one
same,"SNAP-4Dx Positives, Number of Dogs",B. burgdorferi [5]; Day 48 (pre-treatment; antibiotics from Day 75),5
same,"SNAP-4Dx Positives, Number of Dogs",B. burgdorferi [5]; Day 111,7
same,"SNAP-4Dx Positives, Number of Dogs",B. burgdorferi [5]; Day 145,3
same,"SNAP-4Dx Positives, Number of Dogs",B. burgdorferi [5]; Day 179,2
same,"SNAP-4Dx Positives, Number of Dogs",B. burgdorferi [5]; Day 221,0
same,"SNAP-4Dx Positives, Number of Dogs",B. burgdorferi [5]; Day 251,0
same,"SNAP-4Dx Positives, Number of Dogs",B. burgdorferi [5]; Day 281,0
same,"SNAP-4Dx Positives, Number of Dogs",B. burgdorferi [5]; Day 315,0
same,"SNAP-4Dx Positives, Number of Dogs",B. burgdorferi [5]; Day −15 (pre-infection),0
same,SNAP-4Dx positive dogs,B. burgdorferi [5]; rest of the study after Day 179,none positive
